In the NIST ThermoML archive (doi:10.1016/j.fluid.2015.07.045):
± gives the expanded uncertainty stated by the source.

Assays:
[1] = 298.15 K; 101.33 kPa; Liquid; Vibrating tube method
[2] = Boiling temperature at pressure P; settings: 101.3 kPa; Liquid; Ebulliometric method (Recirculating still)

| Structure (SMILES) | mass density [1] [kg/m3] | Boiling temperature at pressure P [2] [°C] |
| --- | --- | --- |
| C[n+]1ccn(Cc2ccccc2)c1.[Cl-] [1-benzyl-3-methyl-1H-imidazolium chloride] | 1192.8 ± 0.6 |  |
| CCCCCCn1cc[n+](C)c1.[Cl-] [1-hexyl-3-methylimidazolium chloride] | 1044.3 ± 0.5 |  |
| CCCCCCn1cc[n+](C)c1.[Br-] [3-hexyl-1-methyl-1H-imidazolium bromide] | 1229.2 ± 0.6 |  |
| CO [methanol] | 787.1 ± 0.4 | 64.54 ± 0.1 |
| COC(C)=O [methyl ethanoate] | 927.3 ± 0.4 | 57.1 ± 0.1 |
